Source: patent publication US8293266B2, “Paromomycin-supplemented feed stuff for turkey and use thereof for prophylaxis of histomoniasis, reduction of the horizontal spreading of histomoniasis, and for improved weight gain and feed conversion” (Huvepharma AD, priority 2007, dated 2012)
Entries after “also recorded” stand apart in the source; their conditions may differ.

What was measured:
[1] = system: histomoniasis; conditions: use through the whole growth cycle; cited from earlier work
[2] = system: Histomonas meleagridis strain HNA.CO. A.L1; assay: Example 2: intracloacal Histomonas meleagridis challenge, seeder and contact birds, mortality and lesions; type: in vivo, turkey; conditions: lowest dose (250 ppm paromomycin sulphate), seeder birds mortality
[3] = system: Histomonas meleagridis strain HNA.CO.A.L1; assay: Example 1: turkeys inoculated intracloacally with Histomonas meleagridis, mortality and lesions; type: in vivo, turkey; conditions: low dose (500 ppm), mortality
[4] = system: histomoniasis; conditions: 200 and 400 ppm in broilers; cited from earlier work
[5] = system: histomoniasis; conditions: cited from earlier work

In the case of CC[C@@H](C(=O)[C@@H](C)[C@@H](O)[C@H](C)[C@@H]1O[C@@H]([C@@H](CC)C(=O)O)CC[C@@H]1C)[C@H]1O[C@]2(C=C[C@@H](O)[C@]3(CC[C@@](C)([C@H]4CC[C@](O)(CC)[C@H](C)O4)O3)O2)[C@H](C)C[C@@H]1C [salinomycin], the “effect with respect to histomoniasis” value [1] is given as “no effect”.
In the case of NC[C@@H]1O[C@H](O[C@H]2[C@@H](O)[C@H](O[C@@H]3[C@@H](O)[C@H](N)C[C@H](N)[C@H]3O[C@H]3O[C@H](CO)[C@@H](O)[C@H](O)[C@H]3N)O[C@@H]2CO)[C@H](N)[C@@H](O)[C@@H]1O [paromomycin], the protection to infection [2] is listed as “significant protection”, the “protection compared to the infected untreated group” value [3] is listed as “significant protection” and the “effect on mortality and lesion scoring” value [4] is listed as “no effect on both mortality and lesion scoring”. For the same compound, the “use in-vivo as chemotherapeutic agent in broiler chickens” value [4] was “ineffective”, the “side effects due to the use of paromomycin” value ([5]; 1000-2000 ppm in feed (dosage exceeding 1000 ppm)) was “certain toxicity effects; also recorded: lesions and hypertrophy of the liver” and the “mortality of infected birds” value ([5]; fed continuously at 1000-2000 ppm in feed) was “reduced the mortality of infected birds”.
For N#CC(c1ccc(Cl)cc1)c1c(Cl)cc(-n2ncc(=O)[nH]c2=O)cc1Cl (stereo not drawn) [diclasuril], the “effect with respect to histomoniasis” value [1] is listed as “no effect”.
For CC[C@@]1([C@@H]2O[C@@H]([C@H]3O[C@@](O)(CO)[C@H](C)C[C@@H]3C)C[C@@H]2C)CC[C@H]([C@]2(C)CC[C@]3(C[C@H](O)[C@@H](C)[C@@H]([C@@H](C)[C@@H](OC)[C@H](C)C(=O)O)O3)O2)O1 [monensin], the “effect with respect to histomoniasis” value [1] is listed as “no effect”.
